Like-named read-outs stand apart in the source and are kept apart here. One block for each compound: values may come before it.
Target: T1, Syk (Homo sapiens, UniProt P43405)
T1 construct: purchased Carna Biosciences
Experiment: Syk HTRF assay
Format: biochemical
Summary of the method: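 HTRF kinase assay in HEPES pH 7.6 buffer with MgCl2, DTT and Triton X100; start mix of 87.5 μM ATP and 80 nM biotinylated peptide, 1 h at room temperature. EDTA stop, then Eu-anti-phosphotyrosine/streptavidin-DyLight 647 detection, read as 665/615 nm emission ratio.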

[1] = IC50 activity level, read-out: Activity Level
[2] = activity levels A-D, read-out: Activity Level (IC50 in the Syk HTRF assay)
[3] = read-out: Activity Level (Syk HTRF assay IC50)

SMILES: COCc1n[nH]c2cc(Nc3nc4cccc(CC5CCOCC5)n4n3)ccc12 [Example 552, N-(3-(methoxymethyl)-1H-indazol-6-yl)-5-((tetrahydro-2H-pyran-4-yl)methyl)-[1,2,4]triazolo[1,5-a]pyridin-2-amine]
IC50 [1]: 0.005 to 250 nM

SMILES: OC1CCC(Cc2cccc3nc(Nc4ccc(C(F)(F)F)cc4)nn23)CC1 (stereo in doubt) [Example 398, trans-4-((2-(4-(trifluoromethyl)phenylamino)-[1,2,4]triazolo[1,5-a]pyridin-5-yl)methyl)cyclohexanol]
IC50 [2]: 0.005 to 250 nM

SMILES: CN(c1cccc2nc(Nc3ccc4c(c3)NC(=O)C4(C)C)nn12)C1CCOCC1 [Example 158, 3,3-dimethyl-6-(5-(methyl(tetrahydro-2H-pyran-4-yl)amino)-[1,2,4]triazolo[1,5-a]pyridin-2-ylamino)indolin-2-one]
IC50 [3]: 0.005 to 250 nM

SMILES: CC1(C)C(=O)Nc2cc(Nc3nc4cccc(NC5CCOCC5)n4n3)ccc21 [Example 177, 3,3-dimethyl-6-(5-(tetrahydro-2H-pyran-4-ylamino)-[1,2,4]triazolo[1,5-a]pyridin-2-ylamino)indolin-2-one]
IC50 [3]: 0.005 to 250 nM

SMILES: c1cc(NC2CCOCC2)n2nc(Nc3cnc4cn[nH]c4c3)nc2c1 [compound 111]
IC50 [3]: 1000 to 10000 nM

SMILES: CC(NCc1cccc2nc(Nc3ccc(C(F)(F)F)cc3)nn12)C(N)=O (racemic) [Example 233, (±)-2-((2-(4-(trifluoromethyl)phenylamino)-[1,2,4]triazolo[1,5-a]pyridin-5-yl)methylamino)propanamide]
IC50 [2]: 500 to 1000 nM

SMILES: Cn1ncc2cc(Nc3nc4cccc(CC5CCOCC5)n4n3)ccc21 [Example 550, N-(1-methyl-1H-indazol-5-yl)-5-((tetrahydro-2H-pyran-4-yl)methyl)-[1,2,4]triazolo[1,5-a]pyridin-2-amine]
IC50 [1]: 0.005 to 250 nM

SMILES: O[C@H]1CC[C@@H](Nc2cccc3nc(Nc4cccc(F)c4)nn23)CC1 [Example 355, cis-4-(2-(3-fluorophenylamino)-[1,2,4]triazolo[1,5-a]pyridin-5-ylamino)cyclohexanol]
IC50 [2]: 0.005 to 250 nM

SMILES: CNc1cc(Nc2nc3cccc(N[C@H]4CC[C@@H](O)CC4)n3n2)ccn1 [Example 366, cis-4-(2-(2-(methylamino)pyridin-4-ylamino)-[1,2,4]triazolo[1,5-a]pyridin-5-ylamino)cyclohexanol]
IC50 [2]: 0.005 to 250 nM

SMILES: Cc1ccc(Nc2nc3cccc(N[C@H]4CC[C@@H](O)CC4)n3n2)cn1 [Example 403, cis-4-(2-(6-methylpyridin-3-ylamino)-[1,2,4]triazolo[1,5-a]pyridin-5-ylamino)cyclohexanol]
IC50 [1]: 0.005 to 250 nM

SMILES: CN1C(=O)C(C)(C)c2ccc(Nc3nc4cccc(NC5CCOCC5)n4n3)cc21 [Example 151, 1,3,3-trimethyl-6-(5-(tetrahydro-2H-pyran-4-ylamino)-[1,2,4]triazolo[1,5-a]pyridin-2-ylamino)indolin-2-one]
IC50 [3]: 0.005 to 250 nM

SMILES: O[C@H]1CC[C@@H](CNc2cccc3nc(Nc4ccc(C(F)(F)F)cc4)nn23)CC1 [Example 382, cis-4-((2-(4-(trifluoromethyl)phenylamino)-[1,2,4]triazolo[1,5-a]pyridin-5-ylamino)methyl)cyclohexanol]
IC50 [2]: 1000 to 10000 nM

SMILES: c1ccc(Nc2nc3cccc(N[C@H]4CCNC4)n3n2)cc1 [Example 475, (S)-N^2-phenyl-N^5-(pyrrolidin-3-yl)-[1,2,4]triazolo[1,5-a]pyridin-2,5-diamine]
IC50 [1]: 250 to 500 nM

SMILES: O[C@H]1CC[C@@H](Nc2cccc3nc(Nc4cccnc4F)nn23)CC1 [Example 322, cis-4-(2-(2-fluoropyridin-3-ylamino)-[1,2,4]triazolo[1,5-a]pyridin-5-ylamino)cyclohexanol]
IC50 [2]: 1000 to 10000 nM

SMILES: CN1C(=O)Cc2ccc(Nc3nc4cccc(NC5CCOCC5)n4n3)cc21 [compound 119, 1-methyl-6-(5-(tetrahydro-2H-pyran-4-ylamino)-[1,2,4]triazolo[1,5-a]pyridin-2-ylamino)indolin-2-one]
IC50 [3]: 1000 to 10000 nM

SMILES: CC(C)Nc1cccc2nc(Nc3ccccc3)nn12 [Example 530, N^5-isopropyl-N^2-phenyl-[1,2,4]triazolo[1,5-a]pyrridine-2,5-diamine]
IC50 [1]: 500 to 1000 nM

SMILES: O[C@@H]1CCCC1Nc1cccc2nc(Nc3ccc(C(F)(F)F)cc3)nn12 (stereo in doubt) [Example 377, (1R,2R)-2-(2-(4-(trifluoromethyl)phenylamino)-[1,2,4]triazolo[1,5-a]pyridin-5-ylamino)cyclopentanol]
IC50 [2]: 0.005 to 250 nM

SMILES: Cc1n[nH]c2cc(Nc3nc4cccc(CN5CC(C)(O)C5)n4n3)ccc12 [Example 169, 3-methyl-1-((2-(3-methyl-1H-indazol-6-ylamino)-[1,2,4]triazolo[1,5-a]pyridin-5-yl)methyl)azetidin-3-ol]
IC50 [3]: 250 to 500 nM

SMILES: Cc1noc2cc(Nc3nc4cccc(NC5CCOCC5)n4n3)ccc12 [Example 531, N^2-(3-methylbenzo[d]isoxazol-6-yl)-N^5-(tetrahydro-2H-pyran-4-yl)-[1,2,4]triazolo[1,5-a]pyridine-2,5-diamine]
IC50 [1]: 1000 to 10000 nM

SMILES: O[C@@H]1CCN(c2cccc3nc(Nc4ccc(C(F)(F)F)cc4)nn23)C1 [Example 332, (R)-1-(2-(4-(trifluoromethyl)phenylamino)-[1,2,4]triazolo[1,5-a]pyridin-5-yl)pyrrolidin-3-ol]
IC50 [2]: 500 to 1000 nM

SMILES: Cc1n[nH]c2cc(Nc3nc4cccc(CN5CCCC(F)(F)C5)n4n3)ccc12 [Example 184, 5-((3,3-difluoropiperidin-1-yl)methyl)-N-(3-methyl-1H-indazol-6-yl)-[1,2,4]triazolo[1,5-a]pyridin-2-amine]
IC50 [3]: 0.005 to 250 nM

SMILES: CNC(=O)c1ccc(Nc2nc3cccc(NC4CCC(N)CC4)n3n2)cc1 (stereo in doubt) [Example 394, trans-4-(5-(4-aminocyclohexylamino)-[1,2,4]triazolo[1,5-a]pyridin-2-ylamino)-N-methylbenzamide]
IC50 [2]: 250 to 500 nM

SMILES: Cc1n[nH]c2cc(Nc3nc4cccc(NC[C@@H]5CCC(O)C5)n4n3)ccc12 (stereo in doubt) [Example 179, (1R,3R)-3-((2-(3-methyl-1H-indazol-6-ylamino)-[1,2,4]triazolo[1,5-a]pyridin-5-ylamino)methyl)cyclopentanol]
IC50 [3]: 0.005 to 250 nM

SMILES: O[C@H]1CC[C@@H](Nc2cccc3nc(Nc4ccnc(NCCN5CCCC5)c4)nn23)CC1 [Example 278, cis-4-(2-(2-(2-(pyrrolidin-1-yl)ethylamino)pyridin-4-ylamino)-[1,2,4]triazolo[1,5-a]pyridin-5-ylamino)cyclohexanol]
IC50 [2]: 0.005 to 250 nM

SMILES: CN1C(=O)C(C)(C)c2ccc(Nc3nc4cccc(N[C@H]5CC[C@@H](O)CC5)n4n3)cc21 [Example 152, cis-6-(5-(4-hydroxycyclohexylamino)-[1,2,4]triazolo[1,5-a]pyridin-2-ylamino)-1,3-3-trimethylindolin-2-one]
IC50 [3]: 0.005 to 250 nM

SMILES: Cc1n[nH]c2cc(Nc3nc4cccc(NC5CCOCC5)n4n3)ccc12 [Example 209, N^2-(3-methyl-1H-indazol-6-yl)-N^5-(tetrahydro-2H-pyran-4-yl)-[1,2,4]triazolo[1,5-a]pyridin-2,5-diamine]
IC50 [2]: 0.005 to 250 nM

SMILES: Cc1cc(Nc2nc3cccc(NC4CCOCC4)n3n2)cc2c1C(C)(C)C(=O)N2 [compound 125, 3,3,4-trimethyl-6-(5-(tetrahydro-2H-pyran-4-ylamino)-[1,2,4]triazolo[1,5-a]pyridin-2-ylamino)indolin-2-one]
IC50 [3]: 0.005 to 250 nM

Now from value to compound:

IC50 [1]: 250 to 500 nM
SMILES: c1ccc(Nc2nc3cccc(-c4ccncc4)n3n2)cc1 [Example 528, N-phenyl-5-(pyridin-4-yl)-[1,2,4]triazolo[1,5-a]pyridin-2-amine]

IC50 [3]: 1000 to 10000 nM
SMILES: Fc1ccccc1-c1cccc2nc(Nc3ccccc3)nn12 [compound 80, 5-(2-fluorophenyl)-N-phenyl-[1,2,4]triazolo[1,5-a]pyridin-2-amine]

IC50 [1]: 1000 to 10000 nM
SMILES: NCCn1cnc2ccc(-c3cccc4nc(Nc5ccccc5)nn34)cc21 [Example 515, 5-(1-(2-aminoethyl)-1H-benzo[d]imidazol-6-yl)-N-phenyl-[1,2,4]triazolo[1,5-a]pyridin-2-amine]

IC50 [1]: 0.005 to 250 nM
SMILES: CNC(=O)c1ccc(Nc2nc3cccc(-c4ccc5[nH]ncc5c4)n3n2)cc1 [Example 426, 4-(5-(1H-indazol-5-yl)-[1,2,4]triazolo[1,5-a]pyridin-2-ylamino)-N-methylbenzamide]

IC50 [3]: 0.005 to 250 nM
SMILES: c1ccc(-c2cccc3nc(Nc4ccc(-c5ncn[nH]5)cc4)nn23)cc1 [compound 56, N-(4-(1H-1,2,4-triazol-5-yl)phenyl)-5-phenyl-[1,2,4]triazolo[1,5-a]pyridin-2-amine]

IC50 [3]: 1000 to 10000 nM
SMILES: c1ccc(-c2cccc3nc(Nc4cncnc4)nn23)cc1 [compound 74, 5-phenyl-N-(pyrimidin-5-yl)-[1,2,4]triazolo[1,5-a]pyridin-2-amine]

IC50 [3]: 0.005 to 250 nM
SMILES: Cn1nc(N)c2ccc(Nc3nc4cccc(-c5ccccc5)n4n3)cc21 [compound 35]

IC50 [1]: 0.005 to 250 nM
SMILES: c1ccc(Nc2nc3cccc(-c4ccc5nc(CN6CCCC6)[nH]c5c4)n3n2)cc1 [Example 428, N-phenyl-5-(2-(pyrrolidin-1-ylmethyl)-1H-benzo[d]imidazol-6-yl)-[1,2,4]triazolo[1,5-a]pyridin-2-amine]

IC50 [1]: 0.005 to 250 nM
SMILES: CNCc1nc2cc(-c3cccc4nc(Nc5ccccc5)nn34)ccc2[nH]1 [Example 487, 5-(2-((methylamino)methyl)-1H-benzo[d]imidazol-5-yl)-N-phenyl-[1,2,4]triazolo[1,5-a]pyridin-2-amine]

IC50 [3]: 0.005 to 250 nM
SMILES: c1ccc(-c2cccc3nc(Nc4ccc5[nH]ncc5c4)nn23)cc1 [compound 61]

IC50 [3]: 0.005 to 250 nM
SMILES: Oc1ccc2cc(Nc3nc4cccc(-c5ccccc5)n4n3)ccc2n1 [compound 26, 6-(5-phenyl-[1,2,4]triazolo[1,5-a]pyridin-2-ylamino)quinolin-2-ol]

IC50 [3]: 1000 to 10000 nM
SMILES: CC(=O)Nc1cccc(-c2cccc3nc(Nc4ccccc4)nn23)c1 [compound 78, N-(3-(2-(phenylamino)-[1,2,4]triazolo[1,5-a]pyridin-5-yl)phenyl)acetamide]

From patent US8299056B2 (Signal Pharmaceuticals, LLC, priority 2008, dated 2012)
